Key:
Male Sprague-Dawley rats = assay: Serum biochemical analysis in DMN-induced rat hepatic fibrosis model; format: in vivo; conditions: DMN-treatment, mean ± SD; for PT (prothrombin time): rat blood; for ACP (acid phosphatase) / AFP (a-fetoprotein) / AKP (alkaline phosphatase) / Albumin / BUN (blood urea nitrogen) / Bilirubin (total bilirubin) / CHOL (cholesterol) / GOT (glutamic oxaloacetic transaminase) / GPT (glutamic pyruvic transaminase) / Globulin / LDH (lactate dehydrogenase): rat serum
Description: (§1) A rat hepatic fibrosis model was set up through the use of DMN. DMN is a potent hepatoxin that specifically targets the liver and can cause liver fibrosis. The histopathological changes resulting from DMN treatment involve the rapid deposition of collagen, the major protein of fibrosis and important to the process of cirrhosis. […] The DMN-induced liver fibrosis model was performed as described in Jezequel A. M. et al. (14). Male Sprague-Dawley rats (Slc:SD; Japan SLC, Shizuoka, Japan), weighing from 300 to 350 grams, were used in the experiments. To induce hepatic fibrosis over a six-week time course experiment, the rats were given DMN (Sigma, Saint Louis, Mo.), dissolved in normal saline, three consecutive days a week for the first three consecutive weeks at the dosage of 6.7 mg/kg per body weight by intraperitoneal injection. Injection time points are shown as inverted triangles in FIG. 1. Injections were at a much lower dosage than those used in other experiments where the dosage was 100 mg/kg/day. The higher dosage can cause toxicity in rat liver (21, 22).)
(§2) Two to seven rats at each time point were treated with either DMN or with an equal volume of normal saline without DMN as the control (26 DMN-treated rats and 24 control rats). Rats were weighed and sacrificed on days 11, 18, 25, 32, 39, and 46 (sacrifice time points are shown as triangles in FIG. 1A) respectively. These triangular time points were designated as weeks 1 through 6 (FIG. 1A).
The serum of each rat, 50 rats in total, was subjected to various biochemical examinations related to liver damages. Blood samples, collected from the animals at necropsy, were used to measure serum concentrations or activity of albumin, glutamic oxaloacetic transaminase (GOT), glutamic pyruvic transaminase (GPT), total bilirubin, alkaline phosphatase (AKP), acid phosphatases (ACP), α-fetoprotein (AFP), blood urea nitrogen (BUN), cholesterol (CHOL), lactate dehydrogenase (LDH), globulin, prothrombin time (PT) and blood platelets (PLT) using an Hitachi 747 and ACL 3000 clinical chemistry analyzer system (MYCO, Renton, Wash.). […] The thirteen serum markers identified in these experiments are the same serum markers for human liver fibrosis.

rat liver = assay: Histopathological examination of DMN-induced liver damage; format: in vivo
Description: as §1, §2
Liver tissues were immediately removed after sacrifice and subject to histopathological examination. The fixed liver samples were then processed for paraffin embedding. Five micrometer (5 μm) sections were prepared for hematoxylin and eosin staining (to score necroinflammatory and fatty changes) and for Sirius red/fast green collagen staining (to score for fibrosis) (23). The fatty changes were classified as presence (+) or absence (−).
In FIG. 2A, the representative phenotypes of the DMN-induced rat liver fibrosis were characterized by scoring the four histopathological features (necrosis, inflammation, fibrosis, and fatty change) as follows: the necrosis scores were from N0 to N3 (the first panel), and the inflammation scores were from I0 to I3. The scoring system for examining the intensity of liver fibrosis was modified from the scoring system of the Hepatitis Activity Index (HAI) (29, 30). Fibrosis was divided into four scores: normal (F0), fibrous expansion of portal tracts (F1), bridging fibrosis (F2) and frequent bridging fibrosis with focal nodule formation (F3). The fatty change was scored as present (+) or absent (−), respectively (the last panel). The images of the fatty change are shown at 200× magnification, whereas the others are shown at 100× magnification (FIG. 2A).
The results were ranked by time course. The necroinflammatory scores were the sum of the necrosis and inflammation scores and range from A0 to A6. The necroinflammatory change was divided into three grades: A0=none, A(1-3)=mild and A(4-6)=moderate necroinflammation. The fibrosis change was divided into two grades: F(0-1)=normal to fibrous expansion of portal tracts, F(2-3)=bridge fibrosis to frequent bridging fibrosis with nodule formation. The fatty change was shown as presence (+) or absence (−). The number of rats was counted and used to calculate the percentage of each histopathological level at each time point.

CN(C)N=O [DMN, Dimethylnitrosamine]
PT (prothrombin time) (Male Sprague-Dawley rats; 1-2 wk): 18 ± 4 (8) sec | PT (prothrombin time) (Male Sprague-Dawley rats; 3-4 wk): 20 ± 4 (9) sec | PT (prothrombin time) (Male Sprague-Dawley rats; 5-6 wk): 22 ± 5 (6) sec | ACP (acid phosphatase) (Male Sprague-Dawley rats; 1-2 wk): 1.9 ± 0.6 (4) mg/dl | AFP (a-fetoprotein) (Male Sprague-Dawley rats; 1-2 wk): 0.40 ± 0.19 (4) ng/dl | AKP (alkaline phosphatase) (Male Sprague-Dawley rats; 1-2 wk): 600.8 ± 93.0 (4) KA | Albumin (Male Sprague-Dawley rats; 1-2 wk): 3.9 ± 0.7 (7) g/dl | BUN (blood urea nitrogen) (Male Sprague-Dawley rats; 1-2 wk): 33 ± 4 (4) mg/dl | Bilirubin (total bilirubin) (Male Sprague-Dawley rats; 1-2 wk): 0.72 ± 0.53 (8) mg/dl | CHOL (cholesterol) (Male Sprague-Dawley rats; 1-2 wk): 77 ± 8 (4) mg/dl | GOT (glutamic oxaloacetic transaminase) (Male Sprague-Dawley rats; 1-2 wk): 661.5 ± 134.4 (8) U/l | GPT (glutamic pyruvic transaminase) (Male Sprague-Dawley rats; 1-2 wk): 459.5 ± 78.5 (8) U/l | Globulin (Male Sprague-Dawley rats; 1-2 wk): 6.7 ± 0.1 (2) g/dl | LDH (lactate dehydrogenase) (Male Sprague-Dawley rats; 1-2 wk): 414.8 ± 102.7 (4) IU/l | ACP (acid phosphatase) (Male Sprague-Dawley rats; 3-4 wk): 6.2 ± 1.1 (4) mg/dl | AFP (a-fetoprotein) (Male Sprague-Dawley rats; 3-4 wk): 0.38 ± 0.05 (4) ng/dl | AKP (alkaline phosphatase) (Male Sprague-Dawley rats; 3-4 wk): 668.3 ± 222.0 (3) KA | Albumin (Male Sprague-Dawley rats; 3-4 wk): 3.5 ± 0.6 (11) g/dl | BUN (blood urea nitrogen) (Male Sprague-Dawley rats; 3-4 wk): 36 ± 2 (4) mg/dl | Bilirubin (total bilirubin) (Male Sprague-Dawley rats; 3-4 wk): 1.01 ± 0.74 (11) mg/dl | CHOL (cholesterol) (Male Sprague-Dawley rats; 3-4 wk): 70 ± 13 (6) mg/dl | GOT (glutamic oxaloacetic transaminase) (Male Sprague-Dawley rats; 3-4 wk): 1006.1 ± 749.6 (11) U/l | GPT (glutamic pyruvic transaminase) (Male Sprague-Dawley rats; 3-4 wk): 566.6 ± 313.5 (11) U/l | Globulin (Male Sprague-Dawley rats; 3-4 wk): 5.0 ± 0.8 (4) g/dl | LDH (lactate dehydrogenase) (Male Sprague-Dawley rats; 3-4 wk): 562.0 ± 120.8 (3) IU/l | ACP (acid phosphatase) (Male Sprague-Dawley rats; 5-6 wk): 8.2 ± 0.6 (2) mg/dl | AFP (a-fetoprotein) (Male Sprague-Dawley rats; 5-6 wk): 0.35 ± 0.07 (2) ng/dl | AKP (alkaline phosphatase) (Male Sprague-Dawley rats; 5-6 wk): 468 ± 12.7 (2) KA | Albumin (Male Sprague-Dawley rats; 5-6 wk): 3.2 ± 0.1 (7) g/dl | BUN (blood urea nitrogen) (Male Sprague-Dawley rats; 5-6 wk): 31 ± 5 (2) mg/dl | Bilirubin (total bilirubin) (Male Sprague-Dawley rats; 5-6 wk): 1.13 ± 1.00 (7) mg/dl | CHOL (cholesterol) (Male Sprague-Dawley rats; 5-6 wk): 67 ± 18 (5) mg/dl | GOT (glutamic oxaloacetic transaminase) (Male Sprague-Dawley rats; 5-6 wk): 1572.9 ± 965.3 (7) U/l | GPT (glutamic pyruvic transaminase) (Male Sprague-Dawley rats; 5-6 wk): 763.6 ± 405.2 (7) U/l | Globulin (Male Sprague-Dawley rats; 5-6 wk): 3.6 ± 0.3 (2) g/dl | LDH (lactate dehydrogenase) (Male Sprague-Dawley rats; 5-6 wk): 853.5 ± 91.2 (2) IU/l | abnormality in the kidney or spleen (rat liver; DMN-treated rats, data not shown): no clear abnormality | DMN-treated rats with none (F0) or low levels of fibrosis (F1) (rat liver; first two weeks, 6.7 mg/kg i.p.): seventy-five | DMN-treated rats with F2 and F3 fibrosis (rat liver; last two weeks): 78% | treated rats with fatty changes present (rat liver; six-week time course): 3.7% | DMN-treated rats with high levels of fibrosis (F2 to F3) (rat liver; third to fourth week): ~90%

— patent US7972785B2, “Biomarkers for liver fibrotic injury” (Industrial Technology Research Institute (ITRI), priority 2006, dated 2011)
